Data reported in patent US20090215882A1, “LYOPHILIZED SOLID TAXANE COMPOSITION, A PROCESS FOR PREPARING SAID SOLID COMPOSITION, A PHARMACEUTICAL FORMULATION AND A KIT FOR SAID FORMULATION” (ERIOCHEM, S.A., priority 2006, published 2009).

How the values were obtained:
[1] = Solubility / dissolution in aqueous solutions without organic solvent; assay type: physicochemical; conditions: for dissolution of the intermediate lyophilized taxane in aqueous Solutol HS15 solution: aqueous Solutol HS15 mixture with excipient (mannitol/citric acid or povidone), no organic solvent
Method: The intermediate lyophilized taxane is dissolved in aqueous solutions of polymers or a mixture of said polymers, namely Lutrol™ F68, Solutol™ HS15, povidone K12 PF or K17 PF.

[2] = Apparent density of the lyophilizate; assay type: physicochemical; conditions: intermediate lyophilized taxane (first lyophilization from organic solvent)
Text: The apparent density of the lyophilizate is defined as the quotient between the mass of the lyophilization cake in grams and its volume in milliliters.
The apparent density of the lyophilizates has been carefully assessed, and after a great number of experiments the apparent density values in which the technical effects of the invention are possible such as easy reconstitution of said solid composition of lyophilized taxane in an aqueous solution free from organic solvent were obtained. […] In other words, the lower the apparent density of the lyophilization cake, the fastest its dissolution. Also, if the apparent density of the solid composition of lyophilized taxane of the present invention is very low, the concentration of the tensoactive is not enough to maintain said taxane in solution, and said taxane precipitates rapidly.

[3] = Chemical degradation of docetaxel in aqueous tensoactive solution; assay type: physicochemical; conditions: pH maintained at values higher than 6
[4] = after administration to mammals, compared to polysorbates; cited from earlier work
[5] = estimated by the World Health Organization; cited from earlier work

| Compound | dissolution of the intermediate lyophilized taxane in aqueous Solutol HS15 solution [1] | apparent density [2] [g/mL] | other results |
| --- | --- | --- | --- |
| CC(=O)O[C@@]12CO[C@@H]1C[C@H](O)[C@@]1(C)C(=O)[C@H](O)C3=C(C)[C@@H](OC(=O)[C@H](O)[C@@H](NC(=O)OC(C)(C)C)c4ccccc4)C[C@@](O)([C@@H](OC(=O)c4ccccc4)[C@H]21)C3(C)C [Example 1, docetaxel] | readily dissolved | 0.025 | – |
| CC(=O)O[C@@]12CO[C@@H]1C[C@H](O)[C@@]1(C)C(=O)[C@H](O)C3=C(C)[C@@H](OC(=O)[C@H](O)[C@@H](NC(=O)OC(C)(C)C)c4ccccc4)C[C@@](O)([C@@H](OC(=O)c4ccccc4)[C@H]21)C3(C)C [Example 2, docetaxel] | readily dissolved | 0.014 | – |
| CC(=O)O[C@@]12CO[C@@H]1C[C@H](O)[C@@]1(C)C(=O)[C@H](O)C3=C(C)[C@@H](OC(=O)[C@H](O)[C@@H](NC(=O)OC(C)(C)C)c4ccccc4)C[C@@](O)([C@@H](OC(=O)c4ccccc4)[C@H]21)C3(C)C [docetaxel] | – | – | solubility in aqueous solutions ([1]; commercially available API, absence of added organic solvents): not soluble; degradation to 7-epidocetaxel [3]: ≤ 60% |
| Polyethylene glycol-15-hydroxystearate [Solutol HS15] | – | – | histaminic release [4]: very low histaminic release |
| polysorbate 80 | – | – | maximum daily dose [5]: 25 mg/kg of body weight |
